This is an account of results in PubChem BioAssay (NCI).

Among the test systems are PC-3 prostate; HCC-2998 colon; M14 melanoma; CAKI-1 renal; OVCAR-8 ovarian; KM12 colon; BT-549 breast; ACHN renal; HCT-116 colon; HCT-15 colon.
What all share (experiment): NCI-60 cell line screen, 48 h

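Method: 48-hour compound exposure of cells in 96-well plates, five concentrations, linear interpolation of endpoints. TGI: concentration producing complete growth inhibition.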 Where a SMILES comes first, the peptide text is derived from it. [ ]: non-standard residue; d: D form. The star is where a group is joined. Bn2Val = CC(C)[C@@H](C(=O)*)N(Cc1ccccc1)Cc1ccccc1; NH(4-Cl-benzyl) = Clc1ccc(CN*)cc1; NMeV = CN[C@H](C(=O)O)C(C)C; dNMeA = CN[C@H](C)C(=O)O

For `CCCSc1ccc2[nH]c(N3C(=O)/C(=C/c4ccccc4)N=C3c3ccccc3)cc2c1`, the TGI in the assay on PC-3 prostate was > 50 µM; in the assay with HCC-2998 colon, 44.6 µM; in the assay with M14 melanoma, > 50 µM; with CAKI-1 renal, > 50 µM; in the assay with OVCAR-8 ovarian it was > 50 µM; in the assay with KM12 colon, > 50 µM. The TGI with BT-549 breast, in the assay on ACHN renal, in the assay on HCT-116 colon and in the assay on HCT-15 colon was > 50 µM throughout.

Consider `CCOC(=O)c1cc(C)nc2c1c(=O)n(-c1ccccc1)c(=O)n2CCCCN1CCN(c2ccccc2)CC1`, for which the TGI in the assay with PC-3 prostate, with HCC-2998 colon, in the assay on M14 melanoma, with OVCAR-8 ovarian, in the assay on KM12 colon and in the assay on BT-549 breast was > 100 µM each time. For the same molecule, the TGI in the assay on ACHN renal, in the assay with HCT-116 colon and with HCT-15 colon was > 100 µM each time.

For `CCCCCCCCCCCCCCCCCCNc1nc(=O)n(C2CC(O)C(COP(=O)(O)O)O2)cc1F` (stereo not drawn), the TGI in the assay on PC-3 prostate, with HCC-2998 colon, in the assay with M14 melanoma, in the assay with CAKI-1 renal, in the assay with OVCAR-8 ovarian and in the assay on KM12 colon was > 100 µM each time. The TGI in the assay with BT-549 breast, in the assay with ACHN renal, in the assay with HCT-116 colon and with HCT-15 colon was > 100 µM in each case.

For `CC(C)[C@H](NC(=O)[C@H](C(C)C)N(Cc1ccccc1)Cc1ccccc1)C(=O)N(C)[C@H](C(=O)N1CCC[C@H]1C(=O)N(C)[C@H](C)C(=O)NCc1ccc(Cl)cc1)C(C)C` (Bn2Val-V[NMeV]P[dNMeA]-{NH(4-Cl-benzyl)}), the TGI was > 100 µM in the assay with PC-3 prostate; 30.1 µM in the assay with M14 melanoma; > 100 µM with CAKI-1 renal; > 100 µM in the assay on OVCAR-8 ovarian; > 100 µM in the assay on KM12 colon; 13.5 µM in the assay with BT-549 breast. The TGI with ACHN renal was 10.1 µM; in the assay on HCT-116 colon, 11.7 µM; in the assay on HCT-15 colon, 41.2 µM.

In the case of `COc1ccc(C(SC2C(O)C(CO)OC2n2ccc(=O)[nH]c2=O)(c2ccccc2)c2ccc(OC)cc2)cc1` (stereo not drawn), the TGI was 33 µM in the assay on PC-3 prostate; 30.3 µM in the assay with HCC-2998 colon; 25.8 µM in the assay with M14 melanoma; > 100 µM in the assay with CAKI-1 renal; 45.5 µM with OVCAR-8 ovarian; 39.2 µM in the assay on KM12 colon. For the same molecule, the TGI in the assay on BT-549 breast came out at 33.6 µM; with ACHN renal, 81.5 µM; in the assay with HCT-116 colon, 29.2 µM; in the assay on HCT-15 colon, 33.3 µM.

Regarding `C=C(C)[C@H]1C2=CC(C)=C(O2)[C@@H](O[C@@H]2c3oc(cc3C)[C@H](C(=C)C)[C@H]3C=C(CC[C@H]2C(=C)C)C(=O)O3)[C@H](C(=C)C)CCC2=C[C@H]1OC2=O`, the TGI in the assay with PC-3 prostate, with HCC-2998 colon, in the assay with M14 melanoma, with CAKI-1 renal, in the assay with OVCAR-8 ovarian and with KM12 colon was > 100 µM throughout. Further, the TGI in the assay on BT-549 breast, with ACHN renal, in the assay with HCT-116 colon and in the assay with HCT-15 colon was > 100 µM each time.

With `C/C(=N\NC(=S)N(C)C)c1cccnn1`, the TGI in the assay on PC-3 prostate, with HCC-2998 colon, in the assay with M14 melanoma, with OVCAR-8 ovarian, in the assay on KM12 colon and in the assay with BT-549 breast was > 100 µM throughout. The TGI with ACHN renal was 0.474 µM; with HCT-116 colon, > 25.9 µM; in the assay with HCT-15 colon, > 100 µM.

As to `COc1ccc(C(=O)CC(c2ccccc2)[C@H]2C(c3ccc(OC)cc3)=Nc3c(nc(SC)n(C)c3=O)NC2c2ccccc2)cc1` (stereo partly drawn), the TGI in the assay with PC-3 prostate, with HCC-2998 colon, in the assay with M14 melanoma, in the assay on CAKI-1 renal, in the assay on KM12 colon and in the assay with BT-549 breast was > 100 µM in each case. Besides, the TGI in the assay with HCT-116 colon and with HCT-15 colon was > 100 µM each time.

For `O=c1c(-c2ccccc2)c(SCCO)n(-c2ccccc2)c(=S)n1-c1ccccc1`, the TGI in the assay on PC-3 prostate, in the assay on M14 melanoma, in the assay on CAKI-1 renal, in the assay with OVCAR-8 ovarian, in the assay with KM12 colon and with BT-549 breast was > 100 µM each time. Also, the TGI in the assay with ACHN renal, with HCT-116 colon and with HCT-15 colon was > 100 µM in each case.

For `COc1ccc(Nc2ccc3ccccc3c2-c2c(O)ccc3ccccc23)cc1`, the TGI in the assay on PC-3 prostate stood at 29.3 µM; in the assay on HCC-2998 colon it was 29.1 µM; with CAKI-1 renal it was 31.7 µM; in the assay with OVCAR-8 ovarian, 33.6 µM; in the assay on KM12 colon it was 29.5 µM; in the assay with BT-549 breast, 52 µM. Moreover, the TGI stood at 29.8 µM in the assay on ACHN renal, 40.5 µM in the assay on HCT-116 colon and 38.5 µM in the assay with HCT-15 colon.

`Cc1nc(N)c(N2CCN(CN)CC2)c(=O)[nH]1`: the TGI in the assay on PC-3 prostate, with HCC-2998 colon, in the assay on M14 melanoma, in the assay on OVCAR-8 ovarian, in the assay on KM12 colon and in the assay with BT-549 breast was > 100 µM in each case. Further, the TGI in the assay on ACHN renal, in the assay with HCT-116 colon and in the assay with HCT-15 colon was > 100 µM each time.

On to `CN(Cc1cnc2nc(N)nc(N)c2n1)c1ccc(C(=O)NC(CO)CCCO)cc1` (stereo not drawn), for which the TGI in the assay with PC-3 prostate, in the assay with M14 melanoma, in the assay with CAKI-1 renal, in the assay on OVCAR-8 ovarian, in the assay with KM12 colon and with BT-549 breast was > 100 µM in each case. In addition, the TGI in the assay on ACHN renal, in the assay on HCT-116 colon and in the assay on HCT-15 colon was > 100 µM each time.

For the molecule `O=C(CCN1CCN2c3ccccc3CCC2C1)c1ccc(F)cc1` (stereo not drawn), the TGI is > 100 µM in the assay with PC-3 prostate; > 100 µM with M14 melanoma; 44.4 µM in the assay on CAKI-1 renal; > 100 µM with OVCAR-8 ovarian; > 100 µM in the assay on KM12 colon; 50 µM in the assay with BT-549 breast. In addition, the TGI was 43.3 µM in the assay on ACHN renal, > 100 µM in the assay on HCT-116 colon and 55.1 µM in the assay on HCT-15 colon.

For the molecule `C=CCC1C(O[Si](C)(C)C(C)(C)C)C(CO[Si](C)(C)C(C)(C)C)OC1n1ccc(=O)[nH]c1=O` (stereo not drawn), the TGI was 3.72 µM with PC-3 prostate; 3.27 µM with HCC-2998 colon; 2.96 µM in the assay on M14 melanoma; 3.41 µM in the assay on OVCAR-8 ovarian; > 100 µM with KM12 colon; 3.42 µM in the assay with BT-549 breast. Also, the TGI was 2.5 µM with HCT-116 colon and 2.64 µM in the assay on HCT-15 colon.
